Data: patent US9169217B2, “Arylalkyl esters of 4-amino-6-(substituted phenyl)-picolinates and 6-amino-2-(substituted phenyl)-pyrimidinecarboxylates and their use as selective herbicides for crops” (Dow AgroSciences LLC, priority 2011, dated 2015)
Like-named read-outs stand apart in the source and are kept apart here.

Legend:
[1] = tested on: Brachiaria platyphylla (GRISEB.) NASH (broadleaf signalgrass); assay: Postemergence foliar-applied herbicidal activity in direct seeded rice (Example 16); type: in vivo; conditions: BRAPP, probit analysis; for GR50: 50% growth reduction; for GR80: 80% growth reduction; for GR90: 90% growth reduction
Summary of the method: (§1)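 Greenhouse plants at 2nd–3rd true leaf stage (10–17 d, ~29/26 °C, 14-h photoperiod) sprayed postemergence with ester forms in acetone–DMSO plus 1.25% crop oil concentrate at 187 L/ha. Visual injury scored 0–100% versus untreated plants after 3 weeks; GR50/GR80 derived by probit analysis.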

[2] = tested on: Cyperus difformis L. (small-flower flatsedge); assay: as above; type: in vivo; conditions: post-emergence, 504 h, read-out: Visual Injury (%) CYPDI
Summary of the method: as §1

[3] = tested on: Echinochloa crus-galli (L.) P.BEAUV. (barnyardgrass); assay: as above; type: in vivo; conditions: ECHCG, probit analysis; for GR50: 50% growth reduction; for GR80: 80% growth reduction; for GR90: 90% growth reduction
Summary of the method: as §1

[4] = tested on: Polygonum pensylvanicum L. (Pennsylvania smartweed); assay: as above; type: in vivo; conditions: POLPY, probit analysis; for GR50: 50% growth reduction; for GR80: 80% growth reduction; for GR90: 90% growth reduction
Summary of the method: as §1

[5] = tested on: Scirpus juncoides ROXB. (Japanese bulrush); assay: as above; type: in vivo; conditions: Schoenoplectiella juncoides, post-emergence, 504 h, read-out: Visual Injury (%) SCPJU
Summary of the method: as §1

[6] = tested on: Cyperus iria L. (rice flatsedge); assay: as above; type: in vivo; conditions: rice cropping systems, 8.75 g ae/ha, 21 DAA, may represent multiple trials
Summary of the method: as §1

[7] = rice cropping systems, foliar-applied, 8.75 g ae/ha, 21 DAA, may represent multiple trials

Structure (SMILES) | GR50 [1] | GR80 [1] | GR90 [1] | GR50 [3] | GR80 [3] | GR90 [3] | GR50 [4] | GR80 [4] | GR90 [4] | Visual Injury (%) CYPIR [6] | melting point | other results
COc1c(Cl)ccc(-c2nc(C(=O)OCc3ccccc3)c(Cl)c(N)c2F)c1F [Compound 1, benzyl 4-amino-3-chloro-6-(4-chloro-2-fluoro-3-methoxyphenyl)-5-fluoropicolinate] | <4.38 g ae/ha | 9.9 g ae/ha | 26.0 g ae/ha | <4.38 g ae/ha | <4.38 g ae/ha | 6.1 g ae/ha | <8.75 g ae/ha | 19.7 g ae/ha | 46.7 g ae/ha | – | – | pest or weed control at 8.75 g/ha [2]: 100%; pest or weed control at 8.75 g/ha [5]: 93%
COC(=O)c1nc(-c2ccc(C3CC3)cc2)c(F)c(N)c1Cl [Compound B, methyl 4-amino-3-chloro-6-(4-cyclopropylphenyl)-5-fluoropicolinate] | – | – | – | – | – | – | – | – | – | 60% | 116 to 119 °C | –
COC(=O)c1nc(-c2ccc(Cl)c(OC)c2F)c(F)c(N)c1Cl [E, methyl 4-amino-3-chloro-6-(4-chloro-2-fluoro-3-methoxyphenyl)-5-fluoropicolinate, reference compound] | <4.38 g ae/ha | 22.7 g ae/ha | 84.3 g ae/ha | 3.7 g ae/ha | 17.1 g ae/ha | 38.1 g ae/ha | 30.7 g ae/ha | >70 g ae/ha | >70 g ae/ha | – | – | pest or weed control at 8.75 g/ha [2, 7]: 89%; pest or weed control at 8.75 g/ha [5, 7]: 61%
Nc1c(F)c(-c2ccc(C3CC3)cc2)nc(C(=O)OCc2ccccc2)c1Cl [Compound 42, benzyl 4-amino-3-chloro-6-(4-cyclopropylphenyl)-5-fluoropicolinate] | – | – | – | – | – | – | – | – | – | 100% | – | –
COc1c(Cl)ccc(-c2cc(N)c(Cl)c(C(=O)OCc3ccccc3)n2)c1F [Compound 39] | – | – | – | – | – | – | – | – | – | – | 90 to 91.5 °C | –
